Data: patent US8388931B2, “99m Tc-labeled triphenylphosphonium derivative contrasting agents and molecular probes for early detection and imaging of breast tumors” (priority 2008, dated 2013)

Experiments:
[1] = Comparative study: myocardial and hepatic uptake of 99mTc-MIBI versus 99mTc-Mito10-MAG3; type: in vivo, rats; conditions: rats
Experimental: (§1) ^99mTc-MIBI of clinical formulation was purchased from Bristol Myers Squibb. […] Dynamic images were acquired in identical fashion following 99mTc-MIBI injection.
In a comparative study, the myocardial uptake of ^99mTc-MIBI peaked at 2.70±0.4% ID/g within minutes after injection, and remained above 2.41±0.3% ID/g for at least 90 min. Comparatively, the myocardial uptake level of ^99mTc-Mito10-MAG 3 is 10, 40, and 120 fold lower than the uptake level of ^99mTc-MIBI at 3, 10 and 30 min after injection. The hepatic uptake of ^99mTc-MIBI was at 0.37±0.14% ID/g at 30 min after injection.

[2] = test system: DMBA-induced breast carcinoma; assay: In vivo gamma camera imaging of DMBA-induced breast carcinoma in rats; parameters: species or system rats (female Sprague Dawley)
Experimental: The animal protocol was approved by institutional IACUC review and followed NIH guidelines. The rat model of DMBA-induced breast carcinoma was used.
As an initial feasibility study, rats were induced with 65 mg/kg DMBA dissolved in sesame oil via a single oral gavage to the stomach. […] Static images were acquired on a GE XRT gamma camera using a high-resolution parallel-hole collimator, 512×512 matrix size, 22.5×22.5 cm field of view, 140±15 keV energy window, 100 k counts. Unexpectedly, apart from the established palpable carcinomas, additional small (millimeter size) tumors were discovered by this imaging technique in the same animals. This finding promoted a longitudinal study to investigate the early detection of neoplastic growth using ^99mTc-Mito10-MAG3.
Six 48-day-old female rats were injected with 65 mg/kg DMBA. At each week after DMBA induction, the rats were imaged using the following protocol. Each rat was anesthetized with 1.6% isoflurane in room air supplemented with oxygen. […] Dynamic images were continuously acquired at one frame per min for 90 min using the imaging parameters set forth hereinabove. The weekly imaging regiment was continued for all six rats until palpable tumors became detectable, which typically takes place between seven to nine weeks after the administration of DMBA. Due to the relatively short physical half-life of ^99mTc (6 hr), no residual signal, therefore, no cross-contamination is detectable from the previous injection the week before.
as §1
The female Sprague Dawley rats have six pairs of mammary glands, among which glands a and b are away from the hepatic/gastrointestinal region. (FIG. 9, Panel A). Since the typical biodistribution of a lipophilic radiopharmaceutical in the abdominal region precludes reliable imaging of breast tissues below the diaphragm, mammary glands shown in Panels C, D, E and F were excluded from the data analysis. This exclusion also was based on the fact that such spatial distribution of mammary glands is irrelevant to that of the human anatomy.
Imaging data analysis was carried out using an inbuilt software, by carefully drawing a region of interest (ROI) on the tumor site to determine the radioactivity counts in the ROI. […] Radioactivity counts were determined in each ROI. Tumor-to-normal and tumor-to-muscle ratios were calculated as the count ratio between the two ROIs.
The rats were sacrificed by CO2 asphyxiation and the number and location of the mammary tumors were recorded at necropsy. The tumors were dissected, with the diameter and weight measured and documented. […]

[3] = Radio-stability in physiological buffer by radioHPLC; type: physicochemical
Experimental: Mito10-MAG3 was radiolabeled with ^99mTc, using a protocol previously reported with minor modifications. Specifically, an aliquot of Mito10-MAG3 (30 μg) was re-suspended in 450 μl of freshly prepared labeling solution containing 7.5 mg tartaric acid, 9.5 mg ammonium acetate, 10 μg stannous chloride, pH 8.3. After the addition of ^99mTc pertechnetate (3 mCi), the labeling mixture was incubated at 65° C. for one hour. For quality control purposes, the radiolabeled product was routinely analyzed by radioHPLC (4.6×250 mm C18 reversed phase column) at room temperature, with the following method.
Buffer A contained 10 mM phosphate buffer (pH 6.8) and buffer B contained 100% acetonitrile. A baseline of 90% A and 10% B was run for 10 min, followed by a linear gradient with the mobile phase reaching 10% A and 90% B at 40 min. To determine the radio-stability, the radiopharmaceutical was maintained in physiological buffer for up to 48 hours, and the radiochemical purity was examined by radioHPLC.

SMILES: CC(=O)[S+]1CC(=O)[N]2CC(=O)[N]3CC(=O)[N](CC(=O)NCCCCCCCCCC[P+](c4ccccc4)(c4ccccc4)c4ccccc4)[99Tc]321=[O].[Br-] (centres unmarked) [^99mTc-Mito10-MAG3]
- reduction of uptake in the myocardium compared to 99mTc-MIBI [1]: one to two orders of magnitude
- uptake in small breast tumors that escaped detection by palpation ([2]; 15 μg via tail vein, gamma camera): significant focal uptake
- weight of small non-palpable tumor detected by imaging ([2]; feasibility experiment, 11 weeks after DMBA induction, at dissection): 18 mg
- time radioactivity bound to Mito10-MAG3 remained persistent after labeling ([3]; physiological solution, radioHPLC): at least 48 hours
- change in radiochemical purity after radiolabeling ([3]; radioHPLC at 0, 24 and 48 hr after radiolabeling): no significant change in radiochemical purity
